Results published in patent US8298991B2, “Method for controlling undesired mimosoideae vegetation” (E I du Pont de Nemours and Company, priority 2008, dated 2012).

Tests used:
[1] = tested on: huisache (Acacia farnesiana); test: Test A: field study, control of a natural stand of huisache; format: in vivo; conditions: for % Defoliation 62 DAA: 62 days after application, vs control plot, foliar spray with 1% methylated seed oil, g ai/ha: Compound 1 250, fosamine-ammonium 6688, imazapyr (a.e.) 280, metsulfuron-methyl 42, alone or combined; for % Control 229 DAA: 229 days after application; for % Control 229 DAA / % Control 745 DAA / % Control 543 DAA / % Control 656 DAA: % of trees with no green foliage or regrowth, g ai/ha: Compound 1 250, fosamine-ammonium 6688, imazapyr 280, metsulfuron-methyl 42; for % Control 745 DAA: 745 days after application; for % Control 543 DAA: 543 days after application; for % Control 656 DAA: 656 days after application
Experimental: A field study was conducted to evaluate the efficacy of 250 g/ha of Compound 1, 6.7 kg/ha of fosamine-ammonium (i.e. ammonium salt of fosamine), 280 g/ha of imazapyr (provided in the form of the isopropylammonium salt of imazapyr) and 42 g/ha of metsulfuron-methyl, separately and in combination, for controlling a natural stand of huisache (Acacia farnesiana) on a ranch in southeastern Texas. Compound 1 was in the form of a wettable granule formulation containing 80% by weight of Compound 1. Fosamine-ammonium was provided by KRENITE® S, which is a water-soluble liquid formulation containing 41.5% of fosamine-ammonium. Imazapyr was provided by ARSENAL®, which is a water-soluble liquid formulation containing 28.7% of imazapyr-isopropylammonium (equivalent to 22.6% of imazapyr, i.e. imazapyr acid equivalent). Metsulfuron-methyl was provided by ESCORT® XP, which is a wettable granule formulation containing 60% of metsulfuron-methyl.
The trial design was a large block, single replicate field study using rectangular test plots measuring 12.8 m by 22.9 m. The huisache trees in the test plots averaged 2.4 m tall and were estimated to be approximately 20 years old. The formulated herbicides were diluted with water and 1% by volume of methylated seed oil was added to provide about 27.4 L of spray mixture. The treatments were applied in early autumn using a high-volume handgun sprayer projecting the spray mixture upward and across a plot in a slow back and forth motion while traversing the plot lengthwise. This produced a rainfall-like spray covering both the huisache trees and ground between trees in the plots. The volume of spray mixture used (corresponding to 935 L/ha) was sufficient to thoroughly wet the foliage of the huisache trees with relatively little drip or run off under the trees.
The effects of the herbicide treatments were visually evaluated. At 62 days after application (DAA), the percentage of defoliation in comparison to a control plot was observed. Then at 229, 543, 656 and 745 days after application % control was calculated based on the percentage of trees showing no green foliage or regrowth.

[2] = tested on: honey mesquite (Prosopis glandulosa); test: Test B: field study, control of natural stands of honey mesquite; format: in vivo; conditions: for % Control Site 1 Observed: Site 1, 12 months after application, 94 L/ha; for % Control Site 1 Observed / % Control Site 2 Observed: % dead trees, g ai/ha: Compound 1 125, triclopyr (a.e., as butotyl ester) 280; for % Control Site 2 Observed: Site 2, 10 months after application, 140 L/ha
Experimental: A field study was conducted to evaluate the efficacy of 125 g/ha of Compound 1 and 280 g/ha of triclopyr (in the form of the butoxyethyl ester of triclopyr, i.e. triclopyr-butotyl), separately and in combination, for controlling natural stands of honey mesquite (Prosopis glandulosa) on ranches in western Texas. Compound 1 was in the form of an 80% wettable granule formulation. Triclopyr was provided by GARLON® 4 or REMEDY®, which are emulsifiable concentrate formulations containing 44.3% or 61.6% of triclopyr-butotyl, respectively.
The trial design was a large block, single replicate test. Each test used rectangular test plots measuring 3 m by 9 m and incorporating at least 10 mesquite plants per plot. The formulated herbicides were diluted with water, and 1% by volume of methylated seed oil was added, to provide volumes of spray mixtures corresponding to a rate of 94 L/ha at Site 1 and 140 L/ha at Site 2. The treatments were applied using flat fan nozzles on an elevated spray boom moved across the plots by an all-terrain vehicle or small tractor. The elevated spray boom and relatively low spray volumes simulated aerial (e.g., helicopter or fixed wing aircraft) applications.
In each plot 10 mesquite trees were identified with a metal tag for evaluation. The effects of the herbicide treatments were evaluated 12 months after application at Site 1 and 10 months after application at Site 2. Visual evaluations were used to rate the herbicidal effect of the various treatments. A tree was considered alive if any foliage was present within the tree canopy area or if any new growth (i.e. sprouts) emerged from the base of the tree.
Expected results were calculated using the Colby Equation. Colby's equation (S. R. Colby, “Calculating Synergistic and Antagonistic Responses of Herbicide Combinations,” Weeds, 15(1), pp 20-22 (1967)) calculates the expected additive effect of herbicidal mixtures, and for two active ingredients is of the form: Pa+b=Pa+Pb−(PaPb/100) wherein • Pa+b is the percentage effect of the mixture expected from additive contribution of the individual components, • Pa is the observed percentage effect of the first active ingredient at the same use rate as in the mixture, and • Pb is the observed percentage effect of the second active ingredient at the same use rate as in the mixture.

SMILES | % Defoliation 62 DAA [1] [%] | % Control 229 DAA [1] [%] | % Control 745 DAA [1] [%] | % Control Site 1 Observed [2] [%] | % Control Site 2 Observed [2] [%] | long-term control of honey mesquite (text summary over Sites 1 and 2) ([2]; both sites, Compound 1 125 g/ha, triclopyr 280 g/ha) [%] | % Control 543 DAA [1] [%] | % Control 656 DAA [1] [%]
COC(=O)c1nc(C2CC2)nc(N)c1Cl [Compound 1, methyl 6-amino-5-chloro-2-cyclopropyl-4-pyrimidine-carboxylate] | 100 | 91 | 33 | 60 | 60 | 60 | – | –
O=C(O)COc1nc(Cl)c(Cl)cc1Cl [Triclopyr, [(3,5,6-trichloro-2-pyridyl)oxy]acetic acid] | – | – | – | 0 | 30 | – | – | –
COC(=O)c1ccccc1S(=O)(=O)NC(=O)Nc1nc(C)nc(OC)n1 [Metsulfuron-methyl, methyl 2-[[[[(4-methoxy-6-methyl-1,3,5-triazin-2-yl)amino]carbonyl]amino]sulfonyl]benzoate] | 85 | 11 | 0 | – | – | – | 0 | 0
CC(C)C1(C)N=C(c2ncccc2C(=O)O)NC1=O (racemic) [Imazapyr, (±)-2-[4,5-dihydro-4-methyl-4-(1-methylethyl)-5-oxo-1H-imidazol-2-yl]-3-pyridinecarboxylic acid] | 70 | 9 | 0 | – | – | – | 0 | 0
CCOP(=O)(O)C(N)=O [Fosamine, ethyl hydrogen (aminocarbonyl)phosphonate] | 75 | 0 | 0 | – | – | – | 0 | 0
